Results: ChEMBL document CHEMBL2074191, “Electrophysiological characteristics of the proton-coupled peptide transporter PEPT2 cloned from rat brain” (Am J Physiol, 1998)
Residues, ends and D or L forms follow the SMILES beside them.

How the values were obtained:
Assay type in all cases: functional, cell-based
[1] = target: T1, Solute carrier family 15 member 2 (Rattus norvegicus) (UniProt Q63424); test: (§1) TP_TRANSPORTER: uptake in PEPT2-expressing HeLa cells
T1 sequence (whole entry): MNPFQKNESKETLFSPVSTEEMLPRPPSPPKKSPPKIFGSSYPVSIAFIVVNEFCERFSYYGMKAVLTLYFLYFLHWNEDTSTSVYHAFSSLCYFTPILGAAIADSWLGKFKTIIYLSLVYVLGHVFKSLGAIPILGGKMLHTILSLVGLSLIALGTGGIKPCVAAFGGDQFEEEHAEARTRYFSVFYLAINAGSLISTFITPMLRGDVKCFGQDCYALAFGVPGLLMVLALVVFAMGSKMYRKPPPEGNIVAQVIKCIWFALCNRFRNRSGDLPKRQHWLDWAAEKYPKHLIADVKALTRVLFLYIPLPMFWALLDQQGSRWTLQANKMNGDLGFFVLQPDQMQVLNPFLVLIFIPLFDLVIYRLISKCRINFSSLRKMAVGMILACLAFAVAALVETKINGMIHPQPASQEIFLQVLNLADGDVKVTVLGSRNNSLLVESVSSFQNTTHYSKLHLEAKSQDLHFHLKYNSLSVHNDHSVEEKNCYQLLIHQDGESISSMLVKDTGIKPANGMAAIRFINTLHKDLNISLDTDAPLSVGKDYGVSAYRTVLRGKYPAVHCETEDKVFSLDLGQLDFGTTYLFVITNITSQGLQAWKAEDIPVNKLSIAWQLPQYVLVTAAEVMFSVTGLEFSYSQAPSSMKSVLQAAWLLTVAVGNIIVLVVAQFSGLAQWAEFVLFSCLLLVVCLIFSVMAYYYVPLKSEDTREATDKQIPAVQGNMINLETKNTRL

[2] = target: T1, Solute carrier family 15 member 2 (Rattus norvegicus); test: TP_TRANSPORTER: inhibition of Gly-Sar uptake (Gly-Sar: 30 uM, Ala-Glu: 500 uM) in PEPT2-expressing SK-N-SH cells
[3] = target: T2, Solute carrier family 15 member 2 (Rattus norvegicus, UniProt Q63424); test: TP_TRANSPORTER: inhibition of Gly-Sar uptake (Gly-Sar: 10 uM) in PEPT2-expressing SK-N-SH cells
T2 sequence (Q63424 whole entry): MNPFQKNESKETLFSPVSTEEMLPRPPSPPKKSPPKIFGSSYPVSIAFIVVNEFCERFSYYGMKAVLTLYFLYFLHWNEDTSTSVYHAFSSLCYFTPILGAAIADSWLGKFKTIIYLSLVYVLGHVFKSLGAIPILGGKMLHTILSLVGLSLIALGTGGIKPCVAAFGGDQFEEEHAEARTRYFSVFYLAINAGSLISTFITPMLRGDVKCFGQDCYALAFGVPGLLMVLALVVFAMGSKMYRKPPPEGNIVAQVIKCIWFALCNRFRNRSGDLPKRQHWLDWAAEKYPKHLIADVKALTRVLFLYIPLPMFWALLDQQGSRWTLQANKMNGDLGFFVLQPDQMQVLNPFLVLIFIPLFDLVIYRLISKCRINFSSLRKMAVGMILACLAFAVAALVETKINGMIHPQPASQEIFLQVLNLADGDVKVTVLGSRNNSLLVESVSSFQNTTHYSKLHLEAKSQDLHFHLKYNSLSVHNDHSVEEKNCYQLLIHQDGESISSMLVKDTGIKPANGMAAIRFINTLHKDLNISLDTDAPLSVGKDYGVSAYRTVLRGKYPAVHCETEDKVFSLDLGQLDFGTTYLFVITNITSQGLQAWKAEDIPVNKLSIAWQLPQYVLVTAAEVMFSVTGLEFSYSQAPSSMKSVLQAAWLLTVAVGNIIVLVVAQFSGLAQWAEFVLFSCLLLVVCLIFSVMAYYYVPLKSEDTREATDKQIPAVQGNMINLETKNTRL

[4] = target: T1, Solute carrier family 15 member 2 (Rattus norvegicus); test: TP_TRANSPORTER: inhibition of Gly-Sar uptake (Gly-Sar: 30 uM, Ala-Val: 500 uM) in PEPT2-expressing SK-N-SH cells
[5] = target: T1, Solute carrier family 15 member 2 (Rattus norvegicus); test: TP_TRANSPORTER: inhibition of Gly-Sar uptake (Gly-Sar: 30 uM, Ala-Lys: 500 uM) in PEPT2-expressing SK-N-SH cells
[6] = substrate: CN(CC(=O)O)C(=O)CN; test: as §1

Molecule: NCC(=O)N1CCC[C@H]1C(=O)O (H-Gly-Pro-OH)
- Activity [1]: substrate [+]

Molecule: C[C@H](N)C(=O)N[C@@H](CCC(=O)O)C(=O)O (H-Ala-Glu-OH)
- Activity [2]: inhibitor [+]

Molecule: CC(=O)N[C@@H](CC(=O)O)C(=O)N[C@@H](CCC(=O)O)C(=O)O [ISOSPAGLUMIC ACID] (Ac-Asp-Glu-OH)
- IC50 [3]: 3 mM

Molecule: NCC(=O)NCC(=O)O (H-Gly-Gly-OH)
- Activity [1]: substrate [+]

Molecule: CC(C)[C@H](NC(=O)[C@H](C)N)C(=O)O (H-Ala-Val-OH)
- Activity [4]: inhibitor [+]

Molecule: NCC(=O)N[C@@H](Cc1ccccc1)C(=O)O (H-Gly-Phe-OH)
- Activity [1]: substrate [+]

Molecule: C[C@H](N)C(=O)N[C@@H](CCCCN)C(=O)O (H-Ala-Lys-OH)
- Activity [5]: inhibitor [+]

B1: Solute carrier family 15 member 2 (Rattus norvegicus), Q63424 (protein)
chain: MNPFQKNESKETLFSPVSTEEMLPRPPSPPKKSPPKIFGSSYPVSIAFIVVNEFCERFSYYGMKAVLTLYFLYFLHWNEDTSTSVYHAFSSLCYFTPILGAAIADSWLGKFKTIIYLSLVYVLGHVFKSLGAIPILGGKMLHTILSLVGLSLIALGTGGIKPCVAAFGGDQFEEEHAEARTRYFSVFYLAINAGSLISTFITPMLRGDVKCFGQDCYALAFGVPGLLMVLALVVFAMGSKMYRKPPPEGNIVAQVIKCIWFALCNRFRNRSGDLPKRQHWLDWAAEKYPKHLIADVKALTRVLFLYIPLPMFWALLDQQGSRWTLQANKMNGDLGFFVLQPDQMQVLNPFLVLIFIPLFDLVIYRLISKCRINFSSLRKMAVGMILACLAFAVAALVETKINGMIHPQPASQEIFLQVLNLADGDVKVTVLGSRNNSLLVESVSSFQNTTHYSKLHLEAKSQDLHFHLKYNSLSVHNDHSVEEKNCYQLLIHQDGESISSMLVKDTGIKPANGMAAIRFINTLHKDLNISLDTDAPLSVGKDYGVSAYRTVLRGKYPAVHCETEDKVFSLDLGQLDFGTTYLFVITNITSQGLQAWKAEDIPVNKLSIAWQLPQYVLVTAAEVMFSVTGLEFSYSQAPSSMKSVLQAAWLLTVAVGNIIVLVVAQFSGLAQWAEFVLFSCLLLVVCLIFSVMAYYYVPLKSEDTREATDKQIPAVQGNMINLETKNTRL
- Km [6]: 35 µM
